In PubChem BioAssay AID1918930 (Molecular Pharmacology Branch, DTP, NCI, 2023):

System: 233499-124-R-J3-PDC complex spheroid viability, % test/control
Assay: Anticancer human tumor 233499-124-R-J3-PDC patient-derived colon adenocarcinoma cell line growth inhibition
Details: for IC50: curve of first compound; for viability, T/C: stronger effect = lower value
Excerpt: Multicellular complex tumor spheroid response to LSD1 Inhibitor Iadademstat in combination with a variety of drugs and investigational agents in selected tumor cell lines
The current study was undertaken to assess response to LSD1 inhibitors in combination with standard-of-care drugs and investigational agents in solid tumor complex spheroid models as well as in the K-562 leukemia. Complex spheroids include a stromal component modeled by human endothelial cells (HUVEC) and fibroblasts modeled by human mesenchymal stem cells (MSCs). The concentration ranges selected for each drug and investigational agent were based upon clinically achievable concentrations if the clinical Cmax of the agent was known.
Compounds. The drugs and investigational agents used in this study are listed on Table 1. All of the agents used, including staurosporine (NSC755774) and gemcitabine (NSC613327), were obtained from the Developmental Therapeutics Program, NCI. FDA-approved anticancer drugs are available from the NCI at http://dtp.nci.nih.gov/branches/dscb/oncology_drugset_explanation.html. Drugs and investigational agents were >95% pure by proton nuclear magnetic resonance (NMR) and liquid chromatography/mass spectrometry (LC/MS). Stock solutions were prepared at 400x in DMSO, stored at -70 degrees C, and diluted in fresh medium prior to their use. The final concentration of DMSO in cell culture wells never exceeded 0.25% (v/v). The FDA-approved anticancer drug set is available from the Developmental Therapeutics Program at https://dtp.cancer.gov/organization/dscb/obtaining/available_plates.htm. All drugs and investigational agents were tested over a range starting from a high concentration at or near the clinical Cmax and decreasing in half-log increments. If the clinical Cmax for an agent had not been determined, the highest concentration tested was 10 microM.
Cell Lines. The patient-derived cancer cell (PDC) lines: 292921-168-R-J2-PDC, K24384-001-R-PDC, and 521955-158-R2-J5-PDC pancreatic carcinomas, 556581-035-R-J1 ovarian carcinoma, 324938-238-R-J1-PDC, 855422-203-R-J1-PDC and 883617-216-R-J1-PDC urothelial bladder carcinomas, 743489-274-T-PDC renal cell carcinoma, 138582-R-J1 Merkel cell tumor, K60290-347-R-J1 and K57222-313-R-J1-PDC glioblastomas, 653999-131-R-J2-PDC, LG0703-F948-PDC, and 349418-098-R-PDC non-small cell lung carcinomas, 885512-296-R-J2-PDC, 171881-019-R-J1-PDC breast carcinomas and 186277-243-T-J2-PDC and 233499-124-R-J2-PDC colon carcinomas were obtained from the NCI Patient-Derived Models Repository (PDMR, https://pdmr.cancer.gov). The established cell lines NCI/ADR-RES (RRID:CVCL_14520 and OVCAR-5 (RRID:CVCL_1628) ovarian carcinomas, 786-O (RRID:CVCL_1051) and A498 (RRID:CVCL_A498) renal cell carcinoma, NCI-H211 (ATCC, cat. CRL-5824; RRID:CVCL_1529), NCI-H196 (ATCC, cat. CRL-5823, RRID:CVCL_1509), SW 1271 (ATCC, cat. CRL-2177, RRID:CVCL_1716) and NCI-H1876 (ATCC, cat. CRL-5902, RRID:CVCL_1503) small cell lung carcinomas, MDA-MB-231 (RRID:CVCL_0062) and MDA-MB-468 (RRID:CVCL_0419)breast carcinomas (10-12). Pooled donor human umbilical vein endothelial cells (HUVEC, Lonza, cat. CC-2519) and human mesenchymal stem cells (hMSC, Lonza, cat. PT-2501) were purchased from Lonza (Walkersville, MD).
Cell Culture. All cells were maintained in an incubator at 37 degrees C and 5% CO2 with 95% humidity. The PDC lines were cultured according to standard operating procedures established by the NCI PDMR (https://pdmr.cancer.gov). Briefly all PDCs were thawed and cultured in Matrigel-coated flasks prepared with a working solution of 1X Ham's F-12 nutrient mix, without supplementation (Invitrogen, Waltham, MA, cat. 11765054), 100 U/mL penicillin-streptomycin (Invitrogen, cat. 15140122), and 2.5% Matrigel (Corning Inc., Corning, NY, cat. 354248) for the first three passages. […]
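Note: spheroids exposed to agents for one week before readout.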

Structure (SMILES): CC(C)c1c(-c2ccccc2)nc2c(C#N)c[nH]n2c1=O + NC1CCC(NC2CC2c2ccccc2)CC1
- IC50 (second compound 0.1 µM): > 10000 nM
- IC50 (second compound 0.316 µM): > 10000 nM
- IC50 (second compound 1 µM): > 10000 nM
- IC50 (second compound 3.16 µM): > 10000 nM
- IC50 (second compound 10 µM): > 10000 nM
- viability, T/C (second compound 0.1 µM, first compound 0.0316 µM): 119%
- viability, T/C (second compound 0.1 µM, first compound 0.1 µM): 98.5%
- viability, T/C (second compound 0.1 µM, first compound 0.316 µM): 99.8%
- viability, T/C (second compound 0.1 µM, first compound 1 µM): 102%
- viability, T/C (second compound 0.1 µM, first compound 3.16 µM): 118%
- viability, T/C (second compound 0.1 µM, first compound 10 µM): 120%
- viability, T/C (second compound 0.316 µM, first compound 0.0316 µM): 93.6%
- viability, T/C (second compound 0.316 µM, first compound 0.1 µM): 110%
- viability, T/C (second compound 0.316 µM, first compound 0.316 µM): 97.3%
- viability, T/C (second compound 0.316 µM, first compound 1 µM): 107%
- viability, T/C (second compound 0.316 µM, first compound 3.16 µM): 118%
- viability, T/C (second compound 0.316 µM, first compound 10 µM): 115%
- viability, T/C (second compound 1 µM, first compound 0.0316 µM): 83.7%
- viability, T/C (second compound 1 µM, first compound 0.1 µM): 104%
- viability, T/C (second compound 1 µM, first compound 0.316 µM): 90%
- viability, T/C (second compound 1 µM, first compound 1 µM): 101%
- viability, T/C (second compound 1 µM, first compound 3.16 µM): 100%
- viability, T/C (second compound 1 µM, first compound 10 µM): 101%
- viability, T/C (second compound 3.16 µM, first compound 0.0316 µM): 89.1%
- viability, T/C (second compound 3.16 µM, first compound 0.1 µM): 85.9%
- viability, T/C (second compound 3.16 µM, first compound 0.316 µM): 96.8%
- viability, T/C (second compound 3.16 µM, first compound 1 µM): 85.6%
- viability, T/C (second compound 3.16 µM, first compound 3.16 µM): 103%
- viability, T/C (second compound 3.16 µM, first compound 10 µM): 104%
- viability, T/C (second compound 10 µM, first compound 0.0316 µM): 83.7%
- viability, T/C (second compound 10 µM, first compound 0.1 µM): 84.8%
- viability, T/C (second compound 10 µM, first compound 0.316 µM): 86.2%
- viability, T/C (second compound 10 µM, first compound 1 µM): 83.6%
- viability, T/C (second compound 10 µM, first compound 3.16 µM): 85.9%
- viability, T/C (second compound 10 µM, first compound 10 µM): 74.2%

Structure (SMILES): CCc1c2c(nc3ccc(O)cc13)-c1cc3c(c(=O)n1C2)COC(=O)[C@]3(O)CC + NC1CCC(NC2CC2c2ccccc2)CC1
- IC50 (second compound 0.1 µM): 25 nM
- IC50 (second compound 0.316 µM): 27.5 nM
- IC50 (second compound 1 µM): 29.4 nM
- IC50 (second compound 3.16 µM): 37.1 nM
- IC50 (second compound 10 µM): 40.5 nM
- viability, T/C (second compound 0.1 µM, first compound 0.000949 µM): 80.5%
- viability, T/C (second compound 0.1 µM, first compound 0.003 µM): 99.5%
- viability, T/C (second compound 0.1 µM, first compound 0.00949 µM): 89.6%
- viability, T/C (second compound 0.1 µM, first compound 0.03 µM): 42.6%
- viability, T/C (second compound 0.1 µM, first compound 0.0949 µM): 19.8%
- viability, T/C (second compound 0.1 µM, first compound 0.3 µM): 20.4%
- viability, T/C (second compound 0.316 µM, first compound 0.000949 µM): 99.6%
- viability, T/C (second compound 0.316 µM, first compound 0.003 µM): 92.2%
- viability, T/C (second compound 0.316 µM, first compound 0.00949 µM): 107%
- viability, T/C (second compound 0.316 µM, first compound 0.03 µM): 46%
- viability, T/C (second compound 0.316 µM, first compound 0.0949 µM): 28.6%
- viability, T/C (second compound 0.316 µM, first compound 0.3 µM): 12.8%
- viability, T/C (second compound 1 µM, first compound 0.000949 µM): 72.6%
- viability, T/C (second compound 1 µM, first compound 0.003 µM): 89.5%
- viability, T/C (second compound 1 µM, first compound 0.00949 µM): 95.6%
- viability, T/C (second compound 1 µM, first compound 0.03 µM): 49.3%
- viability, T/C (second compound 1 µM, first compound 0.0949 µM): 16.8%
- viability, T/C (second compound 1 µM, first compound 0.3 µM): 13.2%
- viability, T/C (second compound 3.16 µM, first compound 0.000949 µM): 90.8%
- viability, T/C (second compound 3.16 µM, first compound 0.003 µM): 92.1%
- viability, T/C (second compound 3.16 µM, first compound 0.00949 µM): 99.7%
- viability, T/C (second compound 3.16 µM, first compound 0.03 µM): 56%
- viability, T/C (second compound 3.16 µM, first compound 0.0949 µM): 28.5%
- viability, T/C (second compound 3.16 µM, first compound 0.3 µM): 18.2%
- viability, T/C (second compound 10 µM, first compound 0.000949 µM): 72.3%
- viability, T/C (second compound 10 µM, first compound 0.003 µM): 78.3%
- viability, T/C (second compound 10 µM, first compound 0.00949 µM): 93.2%
- viability, T/C (second compound 10 µM, first compound 0.03 µM): 58.8%
- viability, T/C (second compound 10 µM, first compound 0.0949 µM): 27.1%
- viability, T/C (second compound 10 µM, first compound 0.3 µM): 22.9%
